According to patent US20200353052A1, “COMPOSITION FOR PROMOTING GOBLET CELL PROLIFERATION OR MUCIN SECRETION COMPRISING THYMOSIN BETA 4 OR DERIVATIVE THEREOF AS ACTIVE INGREDIENT” (G-TREEBNT CO., LTD., priority 2017, published 2020):

What was measured:
Type in all cases: in vivo, NOD.B10-H2b mice
[1] = tested on: goblet cells in the conjunctiva; experiment: Goblet cell number by PAS staining of eyeball sections from dry eye-induced mice after eye drop instillation; conditions: eye drop instillation for 10 days; PAS staining photographs (FIG. 2)
Description: (§1) 12-week-old or older NOD.B10-H2b mice were kept in a chamber with a humidity of 40% or lower for 10 days. Scopolamine hydrobromide (Sigma-Aldrich, SLBR8568V) at a concentration of 0.5 mg/0.2 ml was injected subcutaneously into the thigh 4 times (9 am, 12 pm, 3 pm, and 6 pm) daily while the mice were kept in the chamber. After 10 days, tear secretion volume and corneal smoothness score were measured, and only those mice with a tear secretion volume of 0.06 μl or lower and a corneal smoothness score of 2 or lower were selected.
(§2) For each test drug, eye drop instillation was performed as follows: Vehicle, 4 times a day; Diquas (Santen Pharmaceutical Co., Ltd., Japan), 6 times a day; Xiidra (Shire plc, USA), twice a day; and GBT-201, twice or 4 times a day. After 10 days, each group of mice was sacrificed, the eyeballs were collected, and tissue immunostaining and molecular biological analysis were performed (FIG. 1).
In order to identify whether thymosin beta 4 promotes proliferation of goblet cells, which are cells that secrete mucin in the conjunctiva, the eyeballs of the mice sacrificed in Experimental Example 1 were collected and assessed through periodicacid-Schiff (PAS) staining. […]

[2] = tested on: mucin secreted in the conjunctiva; experiment: Amount of mucin secreted by Alcian blue staining of eyeball sections from dry eye-induced mice after eye drop instillation; conditions: eye drop instillation for 10 days; Alcian blue staining photographs (FIG. 4)
Description: as §1, §2
In order to identify whether thymosin beta 4 results in an increase in amount of mucin secreted in the conjunctiva, the eyeballs of the mice sacrificed in Experimental Example 1 were collected and assessed through Alcian blue staining.
Specifically, the eyeballs of the mice sacrificed in Experimental Example 1 were collected, and the eyes and adnexa, which had been fixed in formalin for 3 days, were cut into 6 μm sections using a microtome. […]

Muc1 = experiment: Immunofluorescence staining of Muc1 in cornea and conjunctiva of dry eye-induced mice; conditions: corneal and conjunctival epithelium; eye drop instillation for 10 days; immunofluorescence (FIGS. 6 and 7)
Description: as §1
as §2, with “1). […]” for “1).”
(§3) Specifically, the eyeballs of the mice sacrificed in Experimental Example 1 were collected, and the eyes and adnexa, which had been fixed in formalin for 3 days, were cut into 6 μm sections using a microtome. […] The mounted slide was photographed using a fluorescence microscope (Leica DM2500, Leica Microsystems GmbH, Wetzlar, Germany).

Muc4 = experiment: Immunofluorescence staining of Muc4 in cornea and conjunctiva of dry eye-induced mice; conditions: corneal and conjunctival epithelium; eye drop instillation for 10 days; immunofluorescence (FIGS. 6 and 7)
Description: as §1
as §2, with “1). […]” for “1).”
as §3

Muc16 = experiment: Immunofluorescence staining of Muc16 in cornea and conjunctiva of dry eye-induced mice; conditions: corneal and conjunctival epithelium; eye drop instillation for 10 days; immunofluorescence (FIGS. 6 and 7)
Description: as §1
as §2, with “1). […]” for “1).”
as §3

Muc5AC = experiment: Immunofluorescence staining of Muc5AC in cornea and conjunctiva of dry eye-induced mice; conditions: eye drop instillation for 10 days, immunofluorescence (FIGS. 6 and 7)
Description: as §1
as §2, with “1). […]” for “1).”
as §3

thymosin beta 4 (SDKPDMAEIEKFDKSKLKKTETQEKNPLPSKETIEQEKQAGES; thymosin beta 4; listed as Homo sapiens)
increased: number of goblet cells as compared with the DS D10 control group, visually identified [1] | amount of mucin secreted as compared with the DS D10 control group, visually identified [2] | expression level of Muc1 as compared with the DS D10 control group, visually identified (Muc1) | expression level of Muc4 as compared with the DS D10 control group, visually identified (Muc4) | expression level of Muc16 as compared with the DS D10 control group, visually identified (Muc16) | expression level of Muc5AC as compared with the DS D10 control group, visually identified (Muc5AC)
